Experimental data taken from US7902354B2, “Lapachone compounds and methods of use thereof” (ArQule, Inc., priority 2006, dated 2011).

Tests used:
[1] = system: DLD-1 human colon carcinoma cells; experiment: MTS cell viability assay, DLD-1 human colon carcinoma cells; type: cell-based; conditions: DLD-1, 4 h compound incubation, MTS, read-out: IC50 Values, Cancerous Cells, Colon DLD-1
[2] = system: NCM-460 normal colon epithelial cells; experiment: MTS cell viability assay, NCM-460 normal colon epithelial cells; type: cell-based; conditions: for IC50: Homo sapiens, NCM460, NCM-460, 4 h compound incubation, MTS, read-out: IC50 Values, Normal Cells, Colon NCM-460; for Fold Selectivity (NCM-460/DLD1): ratio of IC50 NCM-460 / DLD1
[3] = system: PACA-2 human pancreatic carcinoma cells; experiment: MTS cell viability assay, PACA-2 human pancreatic carcinoma cells; type: cell-based; conditions: PACA-2, 4 h compound incubation, MTS, read-out: IC50 Values, Cancerous Cells, Pancreas PACA-2
[4] = system: DU-145 human prostate carcinoma cells; experiment: MTS cell viability assay, DU-145 human prostate carcinoma cells; type: cell-based; conditions: DU-145, 4 h compound incubation, MTS, read-out: IC50 Values, Cancerous Cells, Prostate DU-145
[5] = system: E2F-1; experiment: E2F-1 induction in HT-29 cells; type: cell-based, human
Excerpt: Another effect of the compounds of the present invention is the induction or elevation of activity (e.g. elevation of the level) of one or more checkpoint molecules (i.e., a member of the E2F family of transcription factors). Studies have shown that β-lapachone induces activation of E2F1 checkpoint pathway in nuclei of cancer cells but not in normal cells, resulting in the arrest of cancer cells in G1 and/or S phase. Several compounds of the present invention were effective in activating the E2F1 checkpoint pathway (e.g. elevation of E2F1 levels), thus causing G1 and/or S phase arrest. Furthermore, the compounds of the present invention have no significant toxic effects on normal cells (See. Table 1). The assays of the present invention as shown in Table 1 and methods of measuring induction of E2F1 activity and elevation of E2F1 levels can be carried out following the descriptions found in Li et al., (2003) Proc Natl Acad Sci USA. 100(5): 2674-8 and U.S. Patent Application Publication No. 2002/0169135, both incorporated herein by reference.

[6] = system: HT-29 human colon carcinoma cells; experiment: MTS cell viability assay, HT-29 human colon carcinoma cells; type: cell-based; conditions: 4 h compound incubation, read-out: IC50 Values, Cancerous Cells, Colon HT-29
[7] = system: A549 human lung carcinoma cells; experiment: MTS cell viability assay, A549 human lung carcinoma cells; type: cell-based; conditions: A549, 4 h compound incubation, MTS, read-out: IC50 Values, Cancerous Cells, Lung A549
[8] = system: K-562 human leukemia cells; experiment: MTS cell viability assay, K-562 human leukemia cells; type: cell-based; conditions: K562, K-562, 4 h compound incubation, MTS, read-out: IC50 Values, Cancerous Cells, Leukemia K-562

Structure (SMILES)	IC50 [1] [µM]	IC50 [3] [µM]	IC50 [4] [µM]	IC50 [6] [µM]	IC50 [7] [µM]	IC50 [8] [µM]	IC50 [2] [µM]	Fold Selectivity (NCM-460/DLD1) [2]	E2F-1 Induction (HT-29) [5]
O=C1C(=O)c2ccccc2C2=C1SCC1(CCN(C(=O)Oc3cccc(C(F)(F)F)c3)CC1)O2 [Compound 96, 3-(trifluoromethyl)phenyl 5,6-dioxo-5,6-dihydro-1′H-spiro[naphtho[1,2-b][1,4]oxathiine-2,4′-piperidine]-1′-carboxylate]	31.7	26.7	20	20.5	> 100	36.3	100	3.2	Yes
O=C1C(=O)c2ccccc2C2=C1SCC1(CCN(C(=O)Oc3ccc(F)cc3)CC1)O2 [Compound 97, 4-fluorophenyl 5,6-dioxo-5,6-dihydro-1′H-spiro[naphtho[1,2-b][1,4]oxathiine-2,4′-piperidine]-1′-carboxylate]	4.39	4.93	6.59	12.6	26	4.28	13.3	3.0	YES
O=C1C(=O)c2ccccc2C2=C1SCC1(CCN(Cc3c(F)cccc3Cl)CC1)O2 [Compound 129, 1′-(2-chloro-6-fluorobenzyl)spiro[naphtho[1,2-b][1,4]oxathiine-2,4′-piperidine]-5,6-dione]	3.98	4.12	6.75	7.05	66.9	4.44	16.5	4.1	Yes
CC(C)(C)c1ccc(OC[C@H](O)CN2CCC3(CC2)CSC2=C(O3)c3ccccc3C(=O)C2=O)cc1 [Compound 185, 1′-[(2R)-3-(4-tert-butylphenoxy)-2-hydroxypropyl]spiro[naphtho[1,2-b][1,4]oxathiine-2,4′-piperidine]-5,6-dione]	3.38	1.37	1.01	2.47	7.42	4.46	13.7	4.1	YES
O=C(O)CCC(=O)N1CCC2(CC1)CSC1=C(O2)c2ccccc2C(=O)C1=O [Compound 233, 4-(5,6-dioxo-5,6-dihydro-1′H-spiro[naphtho[1,2-b][1,4]oxathiine-2,4′-piperidin]-1′-yl)-4-oxobutanoic acid]	64.3	56.3	40.4		> 100	62.8	48.8	0.8	
O=C(O)CSCC(=O)N1CCC2(CC1)CSC1=C(O2)c2ccccc2C(=O)C1=O [Compound 234, {[2-(5,6-dioxo-5,6-dihydro-1′H-spiro[naphtho[1,2-b][1,4]oxathiine-2,4′-piperidine]-1′-yl)-2-oxoethyl]thio}acetic acid]	> 100	55.6	> 100		> 100	> 100	> 100		
O=C1C(=O)c2ccccc2C2=C1SCC1(CCN(C(=O)C3CCC3C(=O)O)CC1)O2 (stereo not shown) [Compound 235, 2-[(5,6-dioxo-5,6-dihydro-1′H-spiro[naphtho[1,2-b][1,4]oxathiine-2,4′-piperidin]-1′-yl)carbonyl]cyclobutanecarboxylic acid]	69.6	48.5	54.4		> 100	52.4	85.8	1.2	
O=C1C(=O)c2ccccc2C2=C1SCC1(CCN(C(=O)c3cnccc3C(=O)O)CC1)O2 [Compound 237, 3-[(5,6-dioxo-5,6-dihydro-1′H-spiro[naphtho[1,2-b][1,4]oxathiine-2,4′-piperidin]-1′-yl)carbonyl]isonicotinic acid]	66.1	48	61.3		> 100	49.3	94.2	1.4	

The next molecules have a lower IC50 [1] than those just listed; values first:

IC50 [1] [µM]	IC50 [3] [µM]	IC50 [4] [µM]	IC50 [6] [µM]	IC50 [7] [µM]	IC50 [8] [µM]	Structure (SMILES)	IC50 [2] [µM]	Fold Selectivity (NCM-460/DLD1) [2]	E2F-1 Induction (HT-29) [5]
1.42	1.06	1.37	2.21	3.83	1.44	O=C1C(=O)c2ccccc2C2=C1SCC1(CCN(C(=O)c3ccc(Cl)c(Cl)c3)CC1)O2 [Compound 53, 1′-(3,4-dichlorobenzoyl)spiro[naphtho[1,2-b][1,4]oxathiine-2,4′-piperidine]-5,6-dione]	8.52	6.0	YES
2.1	3.36	3.85	5.74	4.57	3.93	O=C1C(=O)c2ccccc2C2=C1SCC1(CCN(C(=O)c3cccc(Cl)c3)CC1)O2 [Compound 55, 1′-(3-chlorobenzoyl)spiro[naphtho[1,2-b][1,4]oxathiine-2,4′-piperidine]-5,6-dione]	11.2	5.3	Yes
0.714	0.764	1.38	4.48	4.31	1	O=C1C(=O)c2ccccc2C2=C1SCC1(CCN(CC(O)Cc3ccccc3)CC1)O2 (stereo not shown) [Compound 163, 1′-(2-hydroxy-3-phenylpropyl)spiro[naphtho[1,2-b][1,4]oxathiine-2,4′-piperidine]-5,6-dione]	2.84	4.0	Yes
0.734	0.909	1.52	3.11	4.93	1.32	O=C1C(=O)c2ccccc2C2=C1SCC1(CCN(C[C@@H](O)COc3ccc(F)cc3)CC1)O2 [Compound 181, 1′-[(2R)-3-(4-fluorophenoxy)-2-hydroxypropyl]spiro[naphtho[1,2-b][1,4]oxathiine-2,4′-piperidine]-5,6-dione]	4.53	6.2	Yes
1.04	0.7	0.796	3.88	3.1	2.42	O=C1C(=O)c2ccccc2C2=C1SCC1(CCN(C[C@@H](O)COc3ccc(Cl)cc3)CC1)O2 [Compound 183, 1′-[(2R)-3-(4-chlorophenoxy)-2-hydroxypropyl]spiro[naphtho[1,2-b][1,4]oxathiine-2,4′-piperidine]-5,6-dione]	10.2	9.8	Yes
1.49	1.99	3.9		5.42	1.49	O=C1C(=O)c2ccccc2C2=C1SCC1(CCN(C3CCCCC3)CC1)O2 [Compound 258, 1′-cyclohexylspiro[naphtho[1,2-b][1,4]oxathiine-2,4′-piperidine]-5,6-dione]	5.91	4.0	
